The values that follow come from paper PMC6940354, “Comparative Assessment of the New PDE7 Inhibitor – GRMS-55 and Lisofylline in Animal Models of Immune-Related Disorders: A PK/PD Modeling Approach” (Pharmaceutical Research, 2020).

Structures are written as SMILES. Values joined by “and” are separate entries in the source; they are usually repeats but may differ in a detail not shown here. Identical values can stand only once. Marks after values point to notes of the source that are not given here. Some results are limits rather than exact numbers.

What is called IC50 is the concentration at which inhibition is half-maximal. One may read the half-life as the time in which the quantity being followed falls by half.

For one data set, the target named is T1, hrPDE4B (Homo sapiens, UniProt Q07343).
T1 construct: purchased SignalChem, Richmond, Canada
The data set can be described thus: PDE-Glo Phosphodiesterase Assay, hrPDE4B. Conditions: for hrPDE4B inhibitory activity, times weaker than rolipram: ratio to the reference compound rolipram. Format: biochemical.

For a further data set, the target named is T2, hrPDE2A (Homo sapiens, UniProt O00408).
T2 construct: purchased SignalChem, Richmond, Canada
In words: PDE-Glo Phosphodiesterase Assay, hrPDE2A. Format: biochemical. Conditions: cGMP substrate, read-out: IC50 PDE2A, Estimate (CV%).

Another data set has as its target T3, hrPDE1B (Homo sapiens, UniProt Q01064).
T3 construct: purchased SignalChem, Richmond, Canada
In words: PDE-Glo Phosphodiesterase Assay, hrPDE1B. Format: biochemical. Conditions: cAMP substrate, read-out: IC50 PDE1B, Estimate (CV%).

Details of data set [1]: method as in PMID 27065076. As to conditions: male Wistar rats; data already published ref [10]; cited from earlier work.
In a further data set the test system is cAMP degradation. The arrangement: method as in PMID 28730281. As to conditions: rats, cAMP as a marker of pharmacological response ref [9]; cited from earlier work.
The target in another data set is T4, hrPDE7A (Homo sapiens, UniProt Q13946).
T4 construct: purchased SignalChem, Richmond, Canada
The data set can be described thus: PDE-Glo Phosphodiesterase Assay, hrPDE7A. Conditions: cAMP substrate, read-out: IC50 PDE7A, Estimate (CV%). Type of data set: biochemical.

The target in another data set is hrPDE5A (Homo sapiens, UniProt O76074). The data set can be described thus: PDE-Glo Phosphodiesterase Assay, hrPDE5A.
A further data set deals with hrPDE4D (Homo sapiens, UniProt Q08499). In words: PDE-Glo Phosphodiesterase Assay, hrPDE4D.
Data set [2] in a line: Pharmacokinetics in male Wistar rats. Format: in vivo, rat. As to conditions: for half-life: male rats (Wistar), IV, read-out: elimination half-life. As to the method:
The same vehicles as these in pharmacodynamic studies for each compound and route of administration were used. Rats were implanted with catheters into the jugular vein and after a two-day period they were administered with the investigated compounds by the listed above routes of administration. […] Samples were subsequently centrifuged at 3000 × g for 10 min. Plasma was stored at −80°C until analysis.
A detailed description of these methods has been provided in the supplementary materials.
Firstly, the concentration-time data collected for each individual compound from one of the investigated rat strains (Wistar or Lewis) were subjected to a non-compartmental analysis (NCA). Subsequently, pharmacokinetic models were developed for each investigated compound and strain of rat. One- and two- compartment models with linear or non-linear elimination were tested. […] The final models were chosen based on the goodness-of-fit criteria, such as Akaike Information Criterion (AIC), Schwarz Bayesian Criterion (SBC), weighted sum of squared residuals (WSSR), a visual inspection of fitting, and precision of estimated parameters expressed as coefficients of variation % (CVs%). NCA analysis was performed in Phoenix WinNonlin v. 7.0 (Pharsight Corp., a Certara Company, Princeton, New Jersey). Pharmacokinetic model parameters were estimated in ADAPT 5 software (BMSR, Los Angeles, CA) using the weighted least squares algorithm. Fraction of the dose absorbed (F) following an extravascular (EV) administration was calculated according to the Eq. 4:4 F=AUC0−tEV·DIV/AUC0−tIV·DEV where AUC0-t is the area under concentration versus time curve from 0 to the last measured point and D is dose.
PK/PD and PK/PD/DIS progression models were developed considering the mechanism of action of the investigated compounds, the mechanisms of disease progression in the case of CIA, and the subsequent stages leading to TNF-α release in the case of LPS-induced endotoxemia. Various numbers of transit compartments were tested during development of the models, and the final models were chosen based on the goodness-of-fit criteria, such as AIC, SBC, a visual inspection of the fitting, and parameter precision. Estimated values of pharmacokinetic parameters were fixed during PK/PD and PK/PD/DIS progression model fitting procedures. […] PK/PD and PK/PD/DIS progression modeling were performed in ADAPT 5 software using the weighted least squares algorithm.
The applied model is a modified indirect response model ([19]) with implemented transit compartments (T1-T4) that describe the delay of the observed pharmacodynamic response. In this scheme τ is the mean transit time, kin is the time limited (from 0 to tlag) zero-order rate constant of production of a TNF-α precursor (e.g., TNF-α mRNA). […]

The conditions of data set [3]: depending on the species; earlier study ref [37]; cited from earlier work.
Data set [4] relates to LPS-stimulated murine macrophages (RAW263.7 cells). The arrangement: method as in PMID 14998551. As to conditions: LPS-stimulated murine macrophage cell line ref [31]; read-out: IC50, TNF-α production; cited from earlier work.

T1 sequence (Q07343 whole entry): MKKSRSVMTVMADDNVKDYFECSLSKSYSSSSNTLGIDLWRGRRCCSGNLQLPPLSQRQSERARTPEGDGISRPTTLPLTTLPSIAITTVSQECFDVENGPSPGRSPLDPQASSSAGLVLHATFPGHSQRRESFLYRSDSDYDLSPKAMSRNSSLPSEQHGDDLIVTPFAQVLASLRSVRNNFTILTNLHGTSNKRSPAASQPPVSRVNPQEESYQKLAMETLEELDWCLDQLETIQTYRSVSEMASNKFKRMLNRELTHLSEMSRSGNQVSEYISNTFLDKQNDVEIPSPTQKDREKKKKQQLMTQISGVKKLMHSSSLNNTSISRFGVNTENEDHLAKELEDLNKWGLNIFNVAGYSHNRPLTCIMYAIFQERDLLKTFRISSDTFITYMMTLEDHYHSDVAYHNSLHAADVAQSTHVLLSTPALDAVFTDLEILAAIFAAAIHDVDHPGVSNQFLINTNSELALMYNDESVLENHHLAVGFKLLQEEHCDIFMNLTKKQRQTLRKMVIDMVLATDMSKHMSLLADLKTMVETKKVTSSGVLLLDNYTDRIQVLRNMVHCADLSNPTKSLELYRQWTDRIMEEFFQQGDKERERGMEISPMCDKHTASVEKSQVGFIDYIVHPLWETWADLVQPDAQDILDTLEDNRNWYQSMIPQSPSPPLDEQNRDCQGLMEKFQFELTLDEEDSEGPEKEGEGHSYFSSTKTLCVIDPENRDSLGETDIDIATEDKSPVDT
T2 sequence (O00408 whole entry): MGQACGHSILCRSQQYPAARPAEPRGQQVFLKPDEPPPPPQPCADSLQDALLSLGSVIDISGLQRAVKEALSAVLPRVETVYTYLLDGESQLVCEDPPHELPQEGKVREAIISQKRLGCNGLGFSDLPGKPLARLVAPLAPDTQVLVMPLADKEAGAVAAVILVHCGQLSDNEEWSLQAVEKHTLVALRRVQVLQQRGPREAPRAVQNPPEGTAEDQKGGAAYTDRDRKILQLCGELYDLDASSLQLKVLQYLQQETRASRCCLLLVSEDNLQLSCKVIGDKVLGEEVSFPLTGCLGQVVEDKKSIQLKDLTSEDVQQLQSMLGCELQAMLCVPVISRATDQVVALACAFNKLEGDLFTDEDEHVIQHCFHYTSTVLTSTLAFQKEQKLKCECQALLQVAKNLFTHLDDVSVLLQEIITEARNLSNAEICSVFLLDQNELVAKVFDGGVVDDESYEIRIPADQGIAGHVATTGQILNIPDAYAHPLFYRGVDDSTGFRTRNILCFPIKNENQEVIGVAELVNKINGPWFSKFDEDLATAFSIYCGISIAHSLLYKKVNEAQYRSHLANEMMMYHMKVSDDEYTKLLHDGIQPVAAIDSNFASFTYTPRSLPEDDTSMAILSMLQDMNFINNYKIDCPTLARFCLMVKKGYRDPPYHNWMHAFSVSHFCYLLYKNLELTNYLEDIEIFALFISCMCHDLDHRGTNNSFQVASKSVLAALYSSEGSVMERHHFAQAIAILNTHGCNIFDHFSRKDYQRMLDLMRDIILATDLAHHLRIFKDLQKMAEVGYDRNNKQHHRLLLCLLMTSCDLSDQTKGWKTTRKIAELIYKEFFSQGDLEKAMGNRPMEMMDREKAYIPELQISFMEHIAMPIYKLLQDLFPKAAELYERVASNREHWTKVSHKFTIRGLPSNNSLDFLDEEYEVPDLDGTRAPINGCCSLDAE
T3 sequence (Q01064 whole entry): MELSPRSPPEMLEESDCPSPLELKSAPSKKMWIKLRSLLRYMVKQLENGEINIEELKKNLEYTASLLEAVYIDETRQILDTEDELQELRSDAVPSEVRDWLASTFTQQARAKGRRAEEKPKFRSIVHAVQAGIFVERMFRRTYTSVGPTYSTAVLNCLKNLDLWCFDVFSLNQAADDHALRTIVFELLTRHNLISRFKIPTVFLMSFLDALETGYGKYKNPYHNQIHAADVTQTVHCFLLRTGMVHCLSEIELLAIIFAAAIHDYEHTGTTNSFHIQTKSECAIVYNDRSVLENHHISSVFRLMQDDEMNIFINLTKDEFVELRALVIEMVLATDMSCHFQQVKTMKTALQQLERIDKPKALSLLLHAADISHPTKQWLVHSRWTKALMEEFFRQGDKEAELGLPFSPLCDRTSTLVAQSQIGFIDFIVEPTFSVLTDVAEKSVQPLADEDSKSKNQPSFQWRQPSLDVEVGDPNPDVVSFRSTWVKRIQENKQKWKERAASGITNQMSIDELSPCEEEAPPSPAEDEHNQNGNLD
Chain of hrPDE4D (Q08499 whole entry): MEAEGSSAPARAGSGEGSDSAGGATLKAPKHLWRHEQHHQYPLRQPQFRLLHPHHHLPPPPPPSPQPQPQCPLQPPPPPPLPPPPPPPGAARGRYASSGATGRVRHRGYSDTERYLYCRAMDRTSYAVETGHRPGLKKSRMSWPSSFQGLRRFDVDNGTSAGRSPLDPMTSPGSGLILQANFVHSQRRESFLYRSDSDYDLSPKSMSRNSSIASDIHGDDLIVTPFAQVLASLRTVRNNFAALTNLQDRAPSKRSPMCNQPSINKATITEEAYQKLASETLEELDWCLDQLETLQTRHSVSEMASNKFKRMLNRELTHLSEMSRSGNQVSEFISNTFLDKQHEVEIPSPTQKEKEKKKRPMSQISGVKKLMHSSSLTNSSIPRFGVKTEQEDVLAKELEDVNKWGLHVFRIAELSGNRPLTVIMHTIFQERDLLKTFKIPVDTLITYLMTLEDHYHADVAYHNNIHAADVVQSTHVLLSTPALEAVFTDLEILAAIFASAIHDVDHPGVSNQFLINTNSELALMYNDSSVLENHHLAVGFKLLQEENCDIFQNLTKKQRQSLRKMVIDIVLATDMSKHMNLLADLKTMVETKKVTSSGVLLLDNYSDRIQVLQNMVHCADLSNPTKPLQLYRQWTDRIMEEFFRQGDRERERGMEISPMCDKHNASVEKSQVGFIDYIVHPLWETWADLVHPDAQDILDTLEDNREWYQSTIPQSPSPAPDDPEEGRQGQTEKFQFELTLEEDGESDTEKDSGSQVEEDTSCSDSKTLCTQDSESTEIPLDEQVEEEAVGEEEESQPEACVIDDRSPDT
T4 sequence (Q13946 whole entry): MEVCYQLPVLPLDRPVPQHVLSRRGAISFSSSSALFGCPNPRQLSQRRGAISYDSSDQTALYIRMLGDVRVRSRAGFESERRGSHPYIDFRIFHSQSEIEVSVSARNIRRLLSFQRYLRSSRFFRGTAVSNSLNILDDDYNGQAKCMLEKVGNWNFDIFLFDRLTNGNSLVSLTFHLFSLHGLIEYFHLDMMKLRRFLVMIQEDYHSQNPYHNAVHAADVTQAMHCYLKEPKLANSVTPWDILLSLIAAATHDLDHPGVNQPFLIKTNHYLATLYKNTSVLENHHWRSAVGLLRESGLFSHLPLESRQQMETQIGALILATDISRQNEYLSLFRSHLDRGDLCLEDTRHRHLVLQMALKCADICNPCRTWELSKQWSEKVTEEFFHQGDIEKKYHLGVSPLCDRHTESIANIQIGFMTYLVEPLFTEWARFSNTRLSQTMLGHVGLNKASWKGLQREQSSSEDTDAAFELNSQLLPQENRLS
Description for hrPDE1B: (§1) Inhibitory activity of the investigated and reference compounds against various subtypes of PDEs was analyzed using the PDE-Glo Phosphodiesterase Assay following the manufacturer’s instruction (Promega Corp., USA). […] The values of IC50, Imax, and γ parameters of the investigated and reference compounds were estimated using non-linear regression in Phoenix WinNonlin v. […] Each sample was performed in quadruplicate and the relative activity of each sample was calculated as E=sample activity/control activity·100% .
(§2) One and a half μL aliquots of PDE-Glo reaction buffer containing appropriate amounts of human recombinant PDE (hrPDE) 1B, 2A, 3A, 4B, 4D, 5A, 7A, or 10A (SignalChem, Richmond, Canada) were placed into separate wells of a 384-well plate (Thermo Scientific, USA). The investigated compounds were initially dissolved in DMSO and then a serial dilution with DMSO was performed. Each dilution was mixed with PDE-Glo reaction buffer at a ratio of 1:5 (v/v). Then, 1 μL of the solution containing a PDE inhibitor and 2.5 μL of the substrate solution were added to each well. cGMP was used as a substrate in the case of hrPDE2A and hrPDE5A, while cAMP for other types of hrPDEs. The samples were incubated for 10 min at 30°C. […] The luminescence of each sample was measured by a microplate reader POLARstar Omega (BMG LABTECH, Germany).
Description for hrPDE2A: as §1, §2
Description for hrPDE4B: as §1
One and a half μL aliquots of PDE-Glo reaction buffer containing appropriate amounts of human recombinant PDE (hrPDE) 1B, 2A, 3A, 4B, 4D, 5A, 7A, or 10A (SignalChem, Richmond, Canada) were placed into separate wells of a 384-well plate (Thermo Scientific, USA). The investigated compounds were initially dissolved in DMSO and then a serial dilution with DMSO was performed. Each dilution was mixed with PDE-Glo reaction buffer at a ratio of 1:5 (v/v). Then, 1 μL of the solution containing a PDE inhibitor and 2.5 μL of the substrate solution were added to each well. cGMP was used as a substrate in the case of hrPDE2A and hrPDE5A, while cAMP for other types of hrPDEs. The samples were incubated for 10 min at 30°C. Subsequently, 2.5 μL volumes of PDE-Glo Termination Buffer and PDE-Glo Detection Solution were added to each well and after 20 min of incubation at room temperature, 10 μL of Kinase-Glo Reagent was added to each well. The luminescence of each sample was measured by a microplate reader POLARstar Omega (BMG LABTECH, Germany).
Description for hrPDE4D: as §1, §2
Description for hrPDE5A: as §1, §2
Description for hrPDE7A: as §1, §2

As for `CC(O)CCCCn1c(=O)c2c(ncn2C)n(C)c1=O` (racemic) [(±)-LSF, lisofylline], the concentration for half-maximal inhibition (IC50) on hrPDE4B (hrPDE4B, cAMP substrate, read-out: IC50 PDE4B, Estimate (CV%)) was 50.8 µM; at hrPDE2A, 91.6 µM; on hrPDE1B it was 12.9 µM; on hrPDE7A it was 297 µM; against hrPDE5A, over 100 µM; on hrPDE4D, over 200 µM. Further, the “hrPDE4B inhibitory activity, times weaker than rolipram” value on hrPDE4B is 45 times. Further, in data set [1], the “VLSF, volume of distribution of (±)-LSF, Estimate (CV%)” value is reported as 1.22 (3.4)^a L kg^−1. Further, in data set [1], the “Vmax, maximal elimination rate constant of (±)-LSF, Estimate (CV%)” value was 0.433 (56.9)^a mg min^−1 kg^−1. Further, in the data set on cAMP degradation, the “IC50 value for the inhibition of cAMP degradation” value was 3.43 µg/mL.
As for `Cn1c(=O)c2c(nc(NCCc3ccccc3)n2CCCC(=O)NN=Cc2ccccc2O)n(C)c1=O` [GRMS-55, 4-(1,3-Dimethyl-2,6-dioxo-8-(phenethylamino)-2,3,6,7-tetrahydro-1H-purin-7-yl)-N′-(2-hydroxybenzylidene)butanehydrazide], at hrPDE4B (GRMS-55 more potent than (±)-LSF in vitro), the “PDE4B inhibitory potency of GRMS-55 relative to (±)-LSF” value was ~ 2 times and ~ 2.0 times. Also, the “hrPDE4B inhibitory activity, times weaker than rolipram” value at hrPDE4B was 24 times. For the same compound, the IC50 at hrPDE2A was over 100 µM; on hrPDE1B, 2.5 µM; at hrPDE5A, over 100 µM; against hrPDE4D, over 200 µM. Moreover, the “elimination rate constant, times lower than that of rolipram” value in [2] (compared to rolipram) is listed as “approx. 2 times”. Moreover, in data set [2] (rat, plasma, male Wistar rats, GRMS-55 IV 20 mg kg^−1, 1-compartment model, read-out: V(GRMS-55), volume of distribution, Estimate (CV%)), the Vd is 1.59 L/kg. Also, the half-life in data set [2] (rat, plasma) stood at 22 min.
Take `COc1ccc(C2CNC(=O)C2)cc1OC1CCCC1` (stereo not shown) [Rolipram, rolipram]: the half-life in [2] (rat, plasma) turned out to be 11 min. Besides, the elimination half-life in data set [3] is 60 to 180 min. The IC50 in [4] is 0.0593 µM.
